Patent US8178506B2, “Oligomeric compounds and compositions for use in modulation of small non-coding RNAs” (Regulus Therapeutics Inc., priority 2003, dated 2012)
In the oligonucleotide strings, read from the 5' end, every base follows the letter of its sugar. An asterisk marks phosphorothioate; unmarked linkages are phosphodiester. Other units and linkages are bracketed, terminal groups are in braces. A string of capitals states the bases alone. e = 2'-O-(2-methoxyethyl) (MOE); [5mC] = 5-methylcytosine; d = 2'-deoxy (DNA)

What was measured:
mir-30a pri-miRNA = assay: mir-30a luciferase reporter (pGL3C-M30-4X) assay in 293T cells; assay type: cell-based, human; details: for percent control luciferase expression: 150 nM oligomeric compound, then mir-30a pri-miRNA mimic 200 nM, pGL3C-M30-4X normalized to pRL-CMV; for reversing the mir-30a miRNA-mediated silencing of luciferase reporter: 150 nM, then mir-30a pri-miRNA mimic
Text: In one embodiment of the invention, oligomeric compounds targeting the hairpin structure of mir-30a pri-miRNA were designed and tested for their effects on miRNA signaling in 293T cells (American Type Culture Collection (Manassas, Va.)).
A synthetic DNA fragment comprised of four tandem repeats of the target site for mir-30a was cloned into the vector pGL3-C (purchased from Promega Corp., Madison Wis.) at the unique XbaI site (pGL3C-M30-4X). This places the target site in the 3′UTR of the luciferase reporter vector. An oligomeric compound mimicking the mir-30a pri-miRNA ([…] […], herein incorporated as SEQ ID NO: 1749) was in vitro transcribed using T7 RNA polymerase and a DNA template produced by PCR (the T7 promoter is shown in bold).
On the day prior to the experiment 24-well plates were seeded with 293T cells at 50% confluency. The following morning cells were treated with oligomeric compounds targeted to the mir-30a pri-miRNA mimic. All of the compounds are 20 nucleobases in length having either a phosphorothioate backbone throughout (PS) or a phosphodiester backbone throughout (PO). […] All cytidine residues are 5-methylcytidines. The remaining compounds in the table have 2′-methoxyethoxy (MOE) nucleotides throughout with either a phosphorothioate (PS) or phosphodiester (PO) internucleoside linkages.
Cells were washed once with PBS then oligomeric compounds were added to triplicate wells at 150 nM in OPTI-MEM™ media and 4.5 μl/ml LIPOFECTIN™ reagent (Invitrogen Corporation, Carlsbad, Calif.). After 3 hours, the media was removed, and the cells were treated with the mir-30a pri-miRNA mimic at 200 nM in OPTI-MEM™ with 6 μl/ml LIPOFECTIN™ reagent. After 3 hours the media was removed from the cells. The reporter plasmid, pGL3C-M30-4X, was then transfected using SuperFect reagent. 20 μg of pGL3C-M30-4X and 2 μg of pRL-CMV, a plasmid expressing Renilla luciferase, were suspended in 600 μL of serum-free DMEM to which 120 μl of Superfect was added. After a 5 minute incubation, 6 mls of DMEM+10% FCS was added. 125 μL of the plasmid/SuperFect suspension was added to each well. After a 2 hour incubation cells were washed and fresh growth media added. Cells were incubated overnight.
The following morning the media was removed and the cells were lysed in 120 μL passive lysis buffer (PLB; Promega). 40 μL of the lysate was then assayed for Photinus (PL) and Renilla (RL) luciferases using a Dual Luciferase Assay kit (Promega) according to the manufacturer's protocol. The results below are given as percent pGL3C-M30-4× expression (PL) normalized to pRL-CMV expression (RL). The 20-nucleobase oligonucleotide random-mer ISIS Number 29848 was used as a negative control.

IL-12 mRNA = IL-12 mRNA in LPS-activated primary murine macrophages; assay type: cell-based, mouse; details: normalized to LPS-treated cells without oligomeric compound
HuVECs = assay: Endothelial tube formation assay in HuVECs; details: 75 nM oligomeric compound, Table 59

Row | Substance | percent control luciferase expression (mir-30a pri-miRNA) [percent control] | also measured
1 | 328075 (antisense GCTTCACAGCTTCCAGTCGA; all 2'-MOE, all phosphorothioate, methylation of C not given here) [compound 328075] | 55 | 
2 | 328081 (antisense eT*eG*eA*eA*eA*dG*d[5mC]*d[5mC]*d[5mC]*dA*dT*d[5mC]*dT*dG*dT*eG*eG*e[5mC]*eT*eT) [compound 328081] | 80 | 
3 | ISIS 328088: 5-10-5 2′-MOE gapmer, pseudo half-knot compound targeting the mir-30a pri-miRNA (antisense eA*eA*eG*e[5mC]*e[5mC]*d[5mC]*dA*dT*d[5mC]*dT*dG*dT*dG*dG*d[5mC]*eT*eT*e[5mC]*eA*e[5mC]; pseudo half-knot compound) |  | reversing the mir-30a miRNA-mediated silencing of luciferase reporter (mir-30a pri-miRNA): restoring luciferase reporter expression to near control levels
4 | 328086 (antisense e[5mC]*eA*eT*e[5mC]*eT*dG*dT*dG*dG*d[5mC]*dT*dT*d[5mC]*dA*d[5mC]*eA*eG*e[5mC]*eT*eT) [compound 328086] | 95 | 
5 | ISIS 328086: 5-10-5 2′-MOE gapmer, pseudo half-knot compound targeting the mir-30a pri-miRNA (antisense e[5mC]*eA*eT*e[5mC]*eT*dG*dT*dG*dG*d[5mC]*dT*dT*d[5mC]*dA*d[5mC]*eA*eG*e[5mC]*eT*eT; pseudo half-knot compound) |  | reversing the mir-30a miRNA-mediated silencing of luciferase reporter (mir-30a pri-miRNA): restoring luciferase reporter expression to near control levels
6 | 328080 (antisense TGAAAGCCCATCTGTGGCTT; all 2'-MOE, all phosphorothioate, methylation of C not given here) [compound 328080] | 72 | 
7 | 327874 (antisense eG*e[5mC]*eT*eG*e[5mC]*eA*eA*eA*e[5mC]*eA*eT*e[5mC]*e[5mC]*eG*eA*e[5mC]*eT*eG*eA*eA*eA*eG) [compound 327874] | 66 | IL-12 mRNA expression, −IFN % UTC (IL-12 mRNA; 300 nM oligomeric compound and LPS, no IFN-gamma pretreatment, single experiment): 202 % UTC; IL-12 mRNA expression, +IFN % UTC (IL-12 mRNA; 300 nM oligomeric compound, stimulation with IFN-gamma and LPS, average of 2 experiments): 15 % UTC; % Activity Relative to UTC (tube formation) (HuVECs): 46.7%
8 | 328076 (antisense eG*e[5mC]*eT*eT*e[5mC]*dA*d[5mC]*dA*dG*d[5mC]*dT*dT*d[5mC]*d[5mC]*dA*eG*eT*e[5mC]*eG*eA) [compound 328076] | 57 | 
9 | 328077 (antisense CCCATCTGTGGCTTCACAGC; all 2'-MOE, all phosphorothioate, methylation of C not given here) [compound 328077] | 70 | 
10 | 328085 (antisense CATCTGTGGCTTCACAGCTT; all 2'-MOE, all phosphorothioate, methylation of C not given here; designed as pseudo half-knot compound) [compound 328085] | 72 | 
11 | 328078 (antisense e[5mC]*e[5mC]*e[5mC]*eA*eT*d[5mC]*dT*dG*dT*dG*dG*d[5mC]*dT*dT*d[5mC]*eA*e[5mC]*eA*eG*e[5mC]) [compound 328078] | 63 | 
12 | ISIS 328087: 2′-MOE throughout; pseudo half-knot compound targeting the mir-30a pri-miRNA (antisense AAGCCCATCTGTGGCTTCAC; all 2'-MOE, all phosphorothioate, methylation of C not given here; pseudo half-knot design targeting pri-miRNA hairpin) |  | reversing the mir-30a miRNA-mediated silencing of luciferase reporter (mir-30a pri-miRNA): restoring luciferase reporter expression to near control levels
